According to PubChem BioAssay (NCI):
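Five compound concentrations were applied to cells in 96-well plates for 48 hours; endpoints were derived by simple linear interpolation of the resulting dose-response curve. GI50 = concentration required for 50% inhibition of growth. Definition used: TGI = concentration required for complete inhibition of growth.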

Key:
Test in all cases: NCI tumour cell line growth inhibition, 48 h
ACHN renal = tested on: ACHN renal
DMS 273 small cell lung = tested on: DMS 273 small cell lung
HOP-18 NSCLC = tested on: HOP-18 NSCLC
LOX IMVI melanoma = tested on: LOX IMVI melanoma
M19-MEL melanoma = tested on: M19-MEL melanoma
NCI-H23 lung = tested on: NCI-H23 lung
OVCAR-5 ovarian = tested on: OVCAR-5 ovarian
SNB-19 CNS = tested on: SNB-19 CNS
SR leukemia = tested on: SR leukemia
UACC-257 melanoma = tested on: UACC-257 melanoma
HL-60(TB) leukemia = tested on: HL-60(TB) leukemia
DU-145 prostate = tested on: DU-145 prostate

SMILES | TGI (ACHN renal) [µM] | TGI (DMS 273 small cell lung) [µM] | TGI (HOP-18 NSCLC) [µM] | TGI (LOX IMVI melanoma) [µM] | TGI (M19-MEL melanoma) [µM] | TGI (NCI-H23 lung) [µM] | TGI (OVCAR-5 ovarian) [µM] | TGI (SNB-19 CNS) [µM] | TGI (SR leukemia) [µM] | TGI (UACC-257 melanoma) [µM] | TGI (HL-60(TB) leukemia) [µM] | TGI (DU-145 prostate) [µM] | GI50 (DU-145 prostate) [µM]
Cn1cnc([N+](=O)[O-])c1Sc1nnc(-c2ccc(Cl)cc2)n1C | 29.3 | 36 | 18.1 | 20.6 | 27.5 | 32.1 | 34.8 | > 100 | 33.7 | 25.5 |  |  | 
CC(=O)Nc1ccc(S(=O)(=O)Nc2cnc3ccccc3n2)cc1 | > 100 | > 100 | > 100 | > 100 | > 100 | > 100 | > 100 | > 100 | > 100 | > 100 | > 100 |  | 
O=C1C(Nc2ccc(S(=O)(=O)Nc3cnc4ccccc4n3)cc2)=CC(=Nc2ccc(S(=O)(=O)Nc3cnc4ccccc4n3)cc2)c2ccccc21 | > 54.9 | 24.4 | 26.9 | 30.7 | 30.8 | 36.1 | 30.8 | 29 | > 73.9 | > 65.2 | 54.7 | 30.7 | 
Cc1ccnc2[nH]c(-c3ccc(Cl)cc3)cc(=O)c12 | > 100 |  |  | > 100 |  | > 100 | > 100 | > 100 | 5.97 | > 100 | 4.74 | > 100 | 
CCc1cc2c(cc1O)CC[C@@H]1[C@@H]2CC[C@]2(C)[C@@H](O)CC[C@@H]12 | 22.9 |  |  | 26.6 |  | 20.6 | 39.4 | 19 | 10.9 | 20 | 7.66 | 24.5 | 11.1
CCN1CC2(CO)CCC(OC)C34C5CC6C(OC)CC(O)(C5C6OC)C(O)(C(OC)C23)C14 (configuration not stated) |  | > 375 | > 375 | > 375 | > 375 | > 375 | > 209 | > 375 |  | > 375 | > 375 |  | 
OC[C@H](O)[C@@H](OCc1ccccc1)[C@H](NCc1ccccc1)c1cccs1 | > 100 |  |  | > 100 |  | > 100 | > 100 | > 100 | > 100 | > 100 | > 100 | > 100 | 
C=C1C(=O)OC2C=C(C)CC3C=C(CCC=C(C)CCC12)C(=O)O3 (configuration not stated) |  | 145 | 78.5 | 95.1 | 135 | 117 | 208 | 271 |  | 106 | 73.4 |  | 
COC(=O)[C@@]1(Cc2ccc(OC(C)=O)cc2)Cc2cc3ccccc3n2N1 | > 100 |  |  | > 100 |  | > 100 | > 100 | > 100 | 70.6 | 52.1 | 80.8 | > 100 | 
O=c1oc2c(Cl)cc(Cl)cc2cc1-c1cn2c(n1)sc1ccccc12 | > 100 |  |  | > 100 |  | > 100 | > 100 | > 100 | 53.1 | > 100 | 66.9 | > 100 | 
COc1cc([C@@H]2c3cc4c(cc3[C@H](OC3OC5COC(C(C)C)OC5C(O)C3O)C3COC(=O)[C@@H]32)OCO4)cc(OC)c1OC (some centres not stated) | 21.2 |  |  | 27 |  | 16.5 | > 73.8 | > 40.6 | 66.5 | 22.6 | > 25.8 | 55.5 | 
COC(=O)c1cc(NC(=O)Cn2c3ccccc3c3ccccc32)cn1C | > 100 |  |  | > 100 |  | > 100 | > 100 | > 100 | > 100 | > 100 | > 100 | > 100 | 
CSCCC(NOC(=O)Cc1ccccc1)P(=O)(O)c1ccccc1 (configuration not stated) | > 100 |  |  | > 100 |  | > 100 | > 100 | > 100 | > 100 | > 100 | > 100 | > 100 | 
CCN(CC)CCNC(=O)C1COc2ccc(-c3cc(=O)c4ccccc4o3)cc2O1 (configuration not stated) |  | 42.3 | 46.7 | 31.7 | 32.5 | 60.3 | 56.7 | 59.9 |  | 32 | 30.8 |  | 
Cc1cc2nc3c(C)c4ccccc4c(C)n3c2cc1C | > 10 |  |  | 3.61 |  | > 10 | > 10 | > 10 | 9.01 | > 10 | 6.33 | > 10 | 
